For data set [1], the species on record is Mus musculus. Kind of data set: Reduction of amyloid beta40 level in Tg2576 mouse entorhinal cortex at 11.1 MBq. To be noted: 11.1 M, tested as the 18F-labelled form. Format: functional, tissue-based.
Data set [2] is filed under the species Mus musculus. Kind of data set: Reduction of amyloid beta40 level in Tg2576 mouse dentate gyrus at 11.1 MBq. To be noted: 11.1 M, tested as the 18F-labelled form. Format: functional, tissue-based.
In a further data set the test system is Hippocampus. The data set can be described thus: Reduction of amyloid beta40 level in Tg2576 mouse hippocampus at 11.1 MBq. Format: functional, tissue-based. To be noted: 11.1 M, tested as the 18F-labelled form.
The subject of a further data set is Cortex. Kind of data set: Reduction of amyloid beta40 level in Tg2576 mouse cortex at 11.1 MBq. Format: functional, tissue-based. To be noted: 11.1 M, tested as the 18F-labelled form.
Data set [3] concerns Blood. Kind of data set: Biodistribution in mouse blood at 444 kBq/50 uL after 60 mins. Conditions: in vivo, 1 h. Format: ADME, organism-based.
In data set [4] the test system is Bone. Kind of data set: Biodistribution in mouse bone at 444 kBq/50 uL after 30 mins. Format: ADME, organism-based, Bone element. Conditions: in vivo, 0.5 h.
The test system of data set [5] is Brain. Kind of data set: Biodistribution in mouse brain at 444 kBq/50 uL after 60 mins. Format: ADME, organism-based. To be noted: in vivo, 1 h.
In data set [6] the test system is Brain. Kind of data set: Biodistribution in mouse brain at 444 kBq/50 uL after 30 mins. Conditions: in vivo, 0.5 h. It is filed as ADME, organism-based.
Data set [7] has as its system Bone. The data set can be described thus: Biodistribution in mouse bone at 444 kBq/50 uL after 60 mins. Format: ADME, organism-based, Bone element. To be noted: in vivo, 1 h.
The subject of data set [8] is Blood. Kind of data set: Biodistribution in mouse blood at 444 kBq/50 uL after 10 mins. Conditions: in vivo. Format: ADME, organism-based.
Data set [9] has as its system Bone. The data set can be described thus: Biodistribution in mouse bone at 444 kBq/50 uL after 10 mins. Format: ADME, organism-based, Bone element. To be noted: in vivo.
Data set [10] in a line: Displacement of [125I]IMPY from amyloid beta 1-42.
The test system of data set [11] is Blood. The data set can be described thus: Biodistribution in mouse blood at 444 kBq/50 uL after 30 mins. To be noted: in vivo, 0.5 h. Format: ADME, organism-based.
Data set [12] has as its system Bone. Kind of data set: Biodistribution in mouse bone at 444 kBq/50 uL after 2 mins. It is filed as ADME, organism-based, Bone element. To be noted: in vivo.
Data set [13] deals with Brain. Kind of data set: Biodistribution in mouse brain at 444 kBq/50 uL after 10 mins. Format: ADME, organism-based. Conditions: in vivo.
Data set [14] relates to Brain. Kind of data set: Biodistribution in mouse brain at 444 kBq/50 uL after 2 mins. Format: ADME, organism-based. Conditions: in vivo.
The subject of data set [15] is Blood. Kind of data set: Biodistribution in mouse blood at 444 kBq/50 uL after 2 mins. It is filed as ADME, organism-based. To be noted: in vivo.

The results in this text go back to ChEMBL document CHEMBL1255186, “A novel 18F-labeled pyridyl benzofuran derivative for imaging of β-amyloid plaques in Alzheimer's brains” (Bioorg Med Chem Lett, 2010).

Active and inactive are the calls of the source. The rule behind the calls is not given here.

As for `CN(C)c1ccc(-c2cc3cc(OCCOCCOCCF)ccc3o2)cn1`, the result in the data set listed under Mus musculus [1], in the data set filed under Mus musculus [2], in the data set with Hippocampus and in the data set with Cortex was Active.

The Ki is the equilibrium dissociation constant of an inhibitor or competing ligand from its target. Read a high Ki as lower affinity. For `CN(C)c1ccc(-c2cc3cc(OCCOCCOCC[18F])ccc3o2)cn1`, the Drug uptake with Blood [3] is 1.98 % ID/g; with Bone [4], 1.11 % ID/g; with Brain [5], 2.44 % ID/g; with Brain [6], 2.78 % ID/g; with Bone [7], 1.42 % ID/g; in the data set with Blood [8] it was 2.13 % ID/g. For the same compound, the Drug uptake with Bone [9] turned out to be 1.33 % ID/g; in the data set on Blood [11] it was 1.76 % ID/g; in the data set with Bone [12] it was 1.61 % ID/g; in the data set on Brain [13], 3.75 % ID/g; with Brain [14], 5.16 % ID/g; in the data set on Blood [15] it was 2.83 % ID/g. Besides, the affinity in [10], expressed as Ki, was 0.9 nM.
